Measurements published in US20110065715A1, “Nogo Receptor Binding Small Molecules to Promote Axonal Growth” (Yale University, priority 2007, published 2011).
Entries after “also recorded” stand apart in the source; their conditions may differ. Like-named read-outs stand apart in the source and are kept apart here.

Tests used:
[1] = tested on: embryonic day 13 or 14 chick DRG neurons; experiment: Neurite outgrowth assay, E13/E14 chick DRG neurons; assay type: cell-based, chicken; settings: 20 μM; for neurite outgrowth compared to the DMSO control: E13 or E14 chick DRG, two to four hours
Experimental: (§1) To test the ability of the “hit” compounds to promote neurite outgrowth, a neurite outgrowth assay was performed using each of these compounds. Dorsal root ganglia (DRG) were removed from chicken embryos at embryonic day 13 or 14, dissociated by trituration after 30 min incubation in 0.5% collagenase, and plated on laminin-coated 96-well tissue culture plates in DMEM with 10% fetal bovine serum containing 20 μM of the test compound. After two to four hours of incubation, the cells were fixed in 4% formaldehyde in phosphate buffered saline (PBS), washed in PBS, and blocked for 1 hour in PBS with 0.1% triton X-100 and 10% goat serum. The cells were incubated in rabbit anti-beta-3-tubulin (1:500) in PBS overnight and then washed 3 times with PBS. The cells were then incubated in Alexa-fluor 488 goat anti-rabbit IgG (1:500) for 6 hrs, washed with PBS, and imaged at 10× with an ImagExpress automated microscope (Molecular Devices, Inc.). Neurite outgrowth was measured with AcuityExpress software (Molecular Devices, Inc.).

[2] = tested on: Nogo receptor:Nogo ligand (Nogo 66) interaction; experiment: ELISA assay of NgR:Nogo ligand interaction; assay type: binding
Experimental: In the ELISA assay, 96 well streptavidin coated plates were blocked overnight with PBS and 10 mg/ml bovine serum albumin (BSA) (200 μl). The wells were then coated for 1.5 hours with sonicated HBH (Hanks Balanced Salt Solution/0.1 M HEPES/1 mg/ml BSA) containing Nogo 66 (B66) (0.5 μl of 10 mM/10 ml HBH) (50 μl) and then washed 4 times with 200 μl of HBH. The solution containing the inhibitor compound (50 μl in HBH) was added along with 1% FcNgR solution in HBH (50 μl), and the solution was incubated for 2 hours. The wells were washed 5 times with HBH. Alkaline phosphatase (AP) conjugated mouse anti-rat antibody (1:2500) was added and the wells were then washed 5 times with HBH. Colorimetric alkaline phosphatase substrate was added for 30 minutes and the plate was read with the Perkin Elmer Victor 5 instrument. (FIG. 10A). […] (FIG. 10C).

[3] = tested on: Nogo receptor:Nogo ligand (Nogo 66) interaction; experiment: DELFIA assay of Fc-NgR:Ng66 interaction; assay type: binding
Experimental: ELISA and DELFIA assays were then performed to evaluate the ability of the small molecules that were identified as “hits” in the AlphaScreens to inhibit the interaction of NgR and Nogo ligand. In the DELFIA Assay, 96 well streptavidin coated plates were blocked overnight with PBS and 10 mg/ml bovine serum albumin (BSA) (200 μl). The wells were then coated for 1.5 hours with sonicated HBH (Hanks Balanced Salt Solution/0.1 M HEPES/1 mg/ml BSA) containing Nogo 66 (B66) (0.5 μl of 10 mM/10 ml HBH) (50 μl) and then washed 4 times with 200 μl of HBH. The solution containing the inhibitor compound (50 μl in HBH) was added along with 1% FcNgR solution in HBH (50 μl), and the solution was incubated for 2 hours. The wells were washed 5 times with HBH. Alkaline phosphatase (AP) conjugated mouse anti-rat antibody (1:2500) was added and the wells were then washed 5 times with DELFIA wash buffer. The Europium (Eu) anti-mouse antibody was then added in Perlin Elmer Assay, buffer (100 μg/ml) (150 μl) and the wells were again washed 5 times with DELFIA wash buffer. The enhancer solution was added (100 μl) and the plate was read with the Perkin Elmer Victor 5 instrument 15 minutes later. (FIG. 10B) The results from the DELFIA assay indicate that compounds HTS08871, KM08071, and 503749, as well as the positive control, NEP33, inhibit the Nogo receptor:Nogo ligand (Nogo 66) interaction. (FIGS. 10D and 11A-C).

[4] = tested on: embryonic day 13 (E13) chick DRG neurons; experiment: Competition neurite outgrowth assay with soluble FcNgR; assay type: cell-based, chicken; settings: for outgrowth promoting effect when coadministered with FcNgR: with 7.5 μM FcNgR, 3.5 hours
Experimental: as §1
To further verify the mechanism of how the compounds are promoting neurite outgrowth, a competition assay was performed. […] (FIG. 12B). compounds KM, HTS or 555 were then coadministered with 7.5 μM of FcNgR. […] (FIGS. 14A-B and 17B).

[5] = tested on: embryonic day 8 (E8) chick DRG neurons; experiment: Neurite outgrowth assay, E8 chick DRG neurons (no Nogo receptor expressed); assay type: cell-based, chicken; settings: Nogo receptor not yet expressed
Experimental: as §1
In another experiment to verify the mechanism of action, a neurite outgrowth assay was performed as described above except the Dorsal root ganglia (DRG) were removed from chicken embryos at embryonic day 8 instead of day 13. At day 8, Nogo receptor is not yet expressed in the DRG. The compounds KM, HTS, 555, 5470, 585 were administered as described above and neurite outgrowth was measured. […] (FIG. 21)

Fc-NgR:Ng66 interaction = experiment: AlphaScreen of Fc-NgR:Ng66 interaction; assay type: binding
Chain of Fc-NgR:Ng66 interaction (Q99M75 27-310 limits assumed): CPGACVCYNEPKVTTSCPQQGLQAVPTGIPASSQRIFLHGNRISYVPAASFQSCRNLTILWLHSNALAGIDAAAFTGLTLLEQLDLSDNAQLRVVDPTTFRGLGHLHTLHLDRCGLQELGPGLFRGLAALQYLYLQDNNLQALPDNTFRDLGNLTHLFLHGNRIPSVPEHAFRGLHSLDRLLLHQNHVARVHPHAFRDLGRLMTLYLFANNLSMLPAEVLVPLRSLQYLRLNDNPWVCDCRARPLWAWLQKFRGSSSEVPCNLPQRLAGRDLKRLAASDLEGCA
Source text: An AlphaScreen assay was used to screen for small molecule inhibitors of the Nogo receptor-Nogo ligand interaction. The AlphaScreen assay involves matching Alpha Donor (Streptavidin) and Acceptor beads (Protein A). (FIG. 1) These beads are coated with a layer of hydrogel to provide functional groups for bioconjugation. […] However, if a biological reaction brings the Alpha Donor and Acceptor beads into close proximity, upon laser excitation, a cascade of chemical reactions produces a greatly amplified signal. (FIG. 3) Upon laser excitation, a photosensitizer inside the Donor bead converts ambient oxygen to a more excited singlet state. The singlet state oxygen molecules diffuse to produce a chemiluminescent reaction in the Acceptor bead, leading to light emission. In the absence of a specific biological interaction, the singlet state oxygen molecules produced by the Donor bead go undetected without the close proximity of the Acceptor bead.
Beads conjugated to streptavidin were used to bind biotinylated Nogo 66 (Ng66) (the 66 amino acid inhibitory domain in the carboxyl region of Nogo ligand), and beads conjugated to Protein A were used to bind an Fc-Nogo receptor (NgR) fusion protein. (FIG. 2) By virtue of the interaction of Ng66 and Fc-NgR, the acceptor beads and donor beads were brought into proximity, yielding a signal upon excitation. […] (FIGS. 4 and 6). […]

Molecule | neurite outgrowth compared to the DMSO control [1] | effect on neurite outgrowth of day 8 DRGs [5] | further results
CN(C)c1ccc(Cc2ccc(N(C)C)cc2)cc1 [BTB11222, N1,N1-dimethyl-4-[4-(dimethylamino)benzyl]aniline] | promoted neurite outgrowth | – | –
N.N.[Cl][Pt][Cl] [Cisplatin] | – | – | inhibition of Nogo receptor:Nogo 66 interaction, ELISA [2]: inhibit
COc1ccc2c(c1)NC(c1ccc(N(C)C)cc1)c1cccn1-2 (centres unmarked) [HTS, 4′-(7-methoxy-4,5-dihydropyrrolo[1,2-a]quinoxalin-4-yl)-N,N-dimethylaniline] | promoted neurite outgrowth | no effect | inhibition of Nogo receptor:Nogo 66 interaction signal, DELFIA [3]: dose dependent signal inhibition; inhibition of Nogo receptor:Nogo 66 interaction signal, DELFIA ([3]; listed as HTS08871): inhibit; neurite outgrowth in the absence of exogenous FcNgR [4]: promoted neurite outgrowth; outgrowth promoting effect when coadministered with FcNgR [4]: inhibited; also recorded: blocking
N#C/C(=C\c1ccc(C#Cc2ccccc2)cc1)C(=O)c1ccc(Cl)cc1 [KM, 2-(4-chlorobenzoyl)-3-[4-(2-phenyleth-1-ynyl)phenyl]acrylonitrile] | promoted neurite outgrowth | no effect | inhibition of Nogo receptor:Nogo 66 interaction signal, DELFIA [3]: dose dependent signal inhibition; inhibition of Nogo receptor:Nogo 66 interaction signal, DELFIA ([3]; listed as KM08071): inhibit; basal neurite outgrowth, E13 chick DRG neurons [1]: neurite outgrowth promoting effect; neurite outgrowth in the absence of exogenous FcNgR [4]: promoted neurite outgrowth; outgrowth promoting effect when coadministered with FcNgR [4]: inhibited; also recorded: blocking
Cc1nccc(-c2cccc(N/N=C(\C#N)C(=O)c3ccc(Cl)cc3)c2)n1 [KMO2502] | inhibited neurite outgrowth | – | –
N#Cc1ccc(Cn2c(=O)sc3ccccc32)cc1 [compound 535, 4-[(2-oxo-1,3-benzothiazol-3(2H)-yl)methyl]benzonitrile] | promoted neurite outgrowth | – | –
CN(C)c1ccc(C2C=Cc3ccccc3N2C(=O)c2ccccc2)cc1 (centres unmarked) [compound 536, 4-(1-benzoyl-1,2-dihydro-2-quinolinyl)-N,N-dimethylaniline] | promoted neurite outgrowth | – | –
CCOC(=O)C1=C(C)N=C2SCC(=O)N2C1c1ccc(N(C)C)cc1 (centres unmarked) [compound 555, ethyl 5-[4-(dimethylamino)phenyl]-7-methyl-3-oxo-2,3-dihydro-5H-[1,3]thiazolo[3,2-a]pyrimidine-6-carboxylate] | promoted neurite outgrowth | no effect | basal neurite outgrowth, E13 chick DRG neurons [1]: neurite outgrowth promoting effect; neurite outgrowth in the absence of exogenous FcNgR [4]: promoted neurite outgrowth; outgrowth promoting effect when coadministered with FcNgR [4]: inhibited; also recorded: blocking
Cc1oc2ccc(O)cc2c1C(=O)c1ccc(Cl)cc1 [compound 585, (4-chlorophenyl)(5-hydroxy-2-methyl-1-benzofuran-3-yl)methanone] | promoted neurite outgrowth | no effect | basal neurite outgrowth, E14 chick DRG neurons [1]: neurite outgrowth promoting effect
CN1C(=O)C(O)(CC(=O)c2ccc(Cl)cc2)c2ccccc21 (centres unmarked) [compound 592, 3-[2-(4-chlorophenyl)-2-oxoethyl]-3-hydroxy-1-methyl-1,3-dihydro-2H-indol-2-one] | inhibited neurite outgrowth | – | –
CCN1C(=O)C(O)(CC(=O)c2ccc(Cl)cc2)c2ccccc21 (centres unmarked) [compound 664, 3-[2-(4-chlorophenyl)-2-oxoethyl]-1-ethyl-3-hydroxy-1,3-dihydro-2H-indol-2-one] | inhibited neurite outgrowth | – | –
CCc1cccc2c(C(C)=O)cn(Cc3ccc(C#N)cc3)c12 [compound 794, 4-[(3-acetyl-7-ethyl-1H-indol-1-yl)methyl]benzonitrile] | promoted neurite outgrowth | – | –
O=C(c1ccc(Cl)cc1)c1coc2ccc(O)cc12 [compound 5470, (4-chlorophenyl)(5-hydroxy-1-benzofuran-3-yl)methanone] | promoted neurite outgrowth | no effect | basal neurite outgrowth, E14 chick DRG neurons [1]: neurite outgrowth promoting effect
Cc1ccc2occ(C(=O)c3ccc(Cl)cc3)c(=O)c2c1 [compound 5472, 3-(4-chlorobenzoyl)-6-methyl-4H-chromen-4-one] | promoted neurite outgrowth | – | –
O=C(CC1(O)C(=O)Nc2ccc(Br)cc21)c1ccc(Cl)cc1 (centres unmarked) [compound 5475, 5-bromo-3-[2-(4-chlorophenyl)-2-oxoethyl]-3-hydroxy-1,3-dihydro-2H-indol-2-one] | inhibited neurite outgrowth | – | –
Acetyl-RIYKSVLQAVQKTDEGHPFKAYLELEITLSQEQ-Amide (Ac-RIYKSVLQAVQKTDEGHPFKAYLELEITLSQEQ-NH2) [NEP33] | – | – | interference with Ng66:Fc-NgR interaction (AlphaScreen signal) (Fc-NgR:Ng66 interaction): reducing signal; inhibition of interaction of Ng66 and Fc-NgR (AlphaScreen signal) (Fc-NgR:Ng66 interaction; 20 hours incubation, concentration between 1.25 μM and 20 μM, beads 5 μg/ml): inhibited; inhibition of Nogo receptor:Nogo 66 interaction signal, DELFIA [3]: inhibit; inhibition of Nogo receptor:Nogo 66 interaction, ELISA [2]: inhibit
